{
  "source": "paper PMC9895061",
  "about": "(Signal Transduction and Targeted Therapy, 2023)",
  "key": {"[1]": {"test_system": "SW620-gNS xenografts", "assay": "SW620-gNS xenograft tumor growth in nude mice", "conditions": "2 mg/kg intraperitoneally, 5 days per week for 2 weeks"}, "[2]": {"test_system": "NCM460 cells", "assay": "ROS measurement by DCFH-DA staining and flow cytometry, NCM460", "type": "cell-based, human", "conditions": "2 μM, 24 h", "experimental": "(§1) […]. DCFH-DA was deacetylated by intracellular esterase to a non-fluorescent compound, which was later oxidized by intracellular ROS to the fluorescent DCF. DCF fluorescence was detected using flow cytometer and data was analyzed using FlowJo software (version 10.4).\nb ROS measurement of NCM460 cells with compounds treatment. […]."}, "[3]": {"test_system": "SW620 cells", "assay": "ROS measurement by DCFH-DA staining and flow cytometry, SW620", "type": "cell-based, human", "conditions": "2 μM, 24 h", "experimental": "as §1\n(§2) g, h ROS measurement of SW620 (g) and HCT116 (h) cells with compounds treatment. […]."}, "[4]": {"test_system": "gNS SW620 cells", "assay": "Proliferation IC50 in scrambled (gNS) SW620 cells", "type": "cell-based", "conditions": "Homo sapiens, SW-620, 24 h, read-out: IC50 against the proliferation of scrambled (gNS) SW620 cells", "experimental": "To generate PRDX1 knockdown cell lines, gRNA targeting […] was cloned into the vector pHBLV-U6-gRNA-EF1-CAS9-PURO from HanBio. The gRNA, psPAX2, and pMD2·G plasmids were mixed and co-transfected into HEK293T cells using Lipofectamine 2000 (Thermo Fisher Scientific). Medium with lentiviruses was collected and filtered through 0.45 μm filters at 48 h after transfection. Lentiviruses was used to infect the indicated cells with 8 μg/mL polybrene (Sigma-Aldrich) for 2 days. The infected cells were selected in medium containing 2 μg/mL puromycin (Sigma-Aldrich) for 3 days, and PRDX1 protein expression level were examined by western blot.\nSW620 or HCT116 cells were seeded into 96-well plate overnight at 5000 cells per well or 4000 cells per well respectively. […] Cell numbers were assessed using the CCK-8 reagent at OD 450. The IC50 values were calculated by fitting the data points with the dose-response function in GraphPad."}, "[5]": {"test_system": "HCT116 cells", "assay": "Cell viability by trypan blue staining, HCT116", "conditions": "for viability at 0.5 µM: Homo sapiens, HCT-116, 24 h, read-out: cells viability, HCT116", "experimental": "Total cell number and viability were counted with trypan blue staining. To measure apoptosis, cells were harvested and followed by flow cytometric analysis using the Annexin V-FITC / PI apoptosis detection kit according to the manufacturer’s protocol. Cell apoptosis was analyzed by FlowJo software.\ne, f Cell viability were measured by trypan-blue staining."}, "[6]": {"test_system": "HCT116 cells", "assay": "ROS measurement by DCFH-DA staining and flow cytometry, HCT116", "type": "cell-based, human", "conditions": "2 μM, 24 h", "experimental": "as §1, §2"}, "[7]": {"target": "T1, PRDX1 (Homo sapiens, UniProt Q06830)", "T1 sequence (Q06830 1-199)": "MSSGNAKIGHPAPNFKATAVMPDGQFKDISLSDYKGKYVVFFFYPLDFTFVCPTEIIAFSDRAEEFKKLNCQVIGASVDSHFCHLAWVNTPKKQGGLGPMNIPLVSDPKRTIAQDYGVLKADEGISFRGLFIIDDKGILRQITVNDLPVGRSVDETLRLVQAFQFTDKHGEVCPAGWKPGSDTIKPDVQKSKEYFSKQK", "assay": "Determination of Kinact and Ki for inhibition of PRDX1's peroxidase activity", "type": "biochemical"}, "[8]": {"test_system": "nude mice", "assay": "Chronic toxicity test, routine blood test", "conditions": "2 mg/kg, 5 days per week for two weeks"}, "[9]": {"target": "T1, PRDX1", "assay": "Trx-TrxR-NADPH coupling peroxiredoxin activity assay, PRDX1", "type": "biochemical"}, "[10]": {"target": "T2, recombinant wild type PRDX1 (Homo sapiens, UniProt Q06830)", "T2 sequence (Q06830 1-199)": "T1 sequence (Q06830 1-199)", "assay": "Surface plasmon resonance (SPR) assay", "type": "binding"}},
  "data": [
    {"smiles": "CC1=C(O)C(=O)C=C2C1=CC=C1[C@@]2(C)CC[C@@]2(C)[C@@H]3C[C@](C)(C(=O)O)CC[C@]3(C)CC[C@]12C", "note": "[Celastrol, reference compound]", "values": [
      {"measurement": "tumor progression of SW620-gNS xenografts (in words)", "setting": "[1]", "value": "suppressed the overall tumor progression"},
      {"measurement": "intracellular ROS positive rate, NCM460", "setting": "[2]", "value": 26.5, "unit": "%"},
      {"measurement": "ROS-positive rate, SW620", "setting": "[3]", "value": 61.07, "unit": "%"},
      {"measurement": "IC50", "setting": "[4]", "value": "634 ± 11.3", "unit": "nM"},
      {"measurement": "viability at 0.5 µM", "setting": "[5]", "value": "~80", "unit": "%"},
      {"measurement": "ROS-positive rate, HCT116", "setting": "[6]", "value": 88.4, "unit": "%"},
      {"measurement": "Ki", "setting": "[7]", "value": "950 ± 86", "unit": "nM"},
      {"measurement": "count and proportion of monocyte and neutrophil, routine blood test (in words)", "setting": "[8]", "value": "higher than the reference intervals"},
      {"measurement": "IC50", "setting": "[9]", "value": "290 ± 10", "unit": "nM"},
      {"measurement": "Kd", "setting": "[10]", "value": 360, "unit": "nM"}
    ]},
    {"smiles": "COC(=O)[C@H](C)NC(=O)N[C@]1(C)CC[C@]2(C)CC[C@]3(C)C4=CC=C5C(=CC(=O)C(O)=C5C)[C@]4(C)CC[C@@]3(C)[C@@H]2C1", "note": "[19-048, Methyl (((2R,4aS,6aS,12bR,14aS,14bR)-10-hydroxy-2,4a,6a,9,12b,14a-hexamethyl-11-oxo-1,2,3,4,4a,5,6,6a,11,12b,13,14,14a,14b-tetradecahydropicen-2-yl)carbamoyl)-L-alaninate]", "values": [
      {"measurement": "tumor progression of SW620-gNS xenografts (in words)", "setting": "[1]", "value": "suppressed the overall tumor progression"},
      {"measurement": "intracellular ROS positive rate, NCM460", "setting": "[2]", "value": 29.13, "unit": "%"},
      {"measurement": "ROS-positive rate, SW620", "setting": "[3]", "value": 74.77, "unit": "%"},
      {"measurement": "IC50", "setting": "[4]", "value": "529 ± 6.69", "unit": "nM"},
      {"measurement": "cell viability at high concentrations, HCT116 (in words)", "setting": "[5]; 1, 2 μM, 24 h, trypan blue", "value": "significantly decreased cell viability"},
      {"measurement": "viability at 0.5 µM", "setting": "[5]", "value": "~80", "unit": "%"},
      {"measurement": "ROS-positive rate, HCT116", "setting": "[6]", "value": 91.7, "unit": "%"}
    ]}
  ]
}
